Measurements as given in BindingDB's records for doi:10.1021/jm000181f (Deakin University, 2001).

Columns and labels:
[1] = Dissociation constant of [3H]DPCPX binding to adenosine A1 receptor (AR) at 200 nM
[2] = Dissociation constant of [3H]DPCPX binding to adenosine A1 receptor (AR) at 5 nM
[3] = Dissociation constant of [3H]-DPCPX binding to adenosine A1 receptor (AR) at 0.1 nM
[4] = Dissociation constant of [3H]DPCPX binding to adenosine A1 receptor (AR) at 0.05 nM
[5] = Dissociation constant of [3H]DPCPX binding to adenosine A1 receptor (AR) at 100 nM
[6] = Dissociation constant of [3H]-DPCPX binding to adenosine A1 receptor(AR) at 0.05 nM
[7] = Dissociation constant of [3H]DPCPX binding to adenosine A1 receptor(AR) at 0.1 nM

CCCn1c(=O)c2[nH]c(C3CCCCC3)nc2n(Cc2ccc(S(=O)(=O)F)cc2)c1=O [4-(8-Cyclohexyl-2,6-dioxo-1-propyl-1,2,6,7-tetrahydro-purin-3-ylmethyl)-benzenesulfonyl fluoride]
Kd [1]: 0.32 nM

CCCn1c(=O)c2[nH]c(C3CCCCC3)nc2n(CCCc2ccc(S(=O)(=O)F)cc2)c1=O [4-[3-(8-Cyclohexyl-2,6-dioxo-1-propyl-1,2,6,7-tetrahydro-purin-3-yl)-propyl]-benzenesulfonyl fluoride]
Kd [1]: 0.37 nM

CCCn1c(=O)c2[nH]c(C3CCCCC3)nc2n(CCCNC(=O)c2ccc(S(=O)(=O)F)cc2)c1=O [4-[3-(8-Cyclohexyl-2,6-dioxo-1-propyl-1,2,6,7-tetrahydro-purin-3-yl)-propylcarbamoyl]-benzenesulfonyl fluoride]
Kd [2]: 0.37 nM | Kd [3]: 0.27 nM | Kd [4]: 0.28 nM | Kd [5]: 0.34 nM

CCCn1c(=O)c2[nH]c(C3CCCC3)nc2n(CCCNC(=O)c2ccc(S(=O)(=O)F)cc2)c1=O [4-[3-(8-Cyclopentyl-2,6-dioxo-1-propyl-1,2,6,7-tetrahydro-purin-3-yl)-propylcarbamoyl]-benzenesulfonyl fluoride]
Kd [6]: 0.26 nM | Kd [7]: 0.24 nM

CCCn1c(=O)c2[nH]c(C3CCCCC3)nc2n(CCCCCc2ccc(S(=O)(=O)F)cc2)c1=O [4-[5-(8-Cyclohexyl-2,6-dioxo-1-propyl-1,2,6,7-tetrahydro-purin-3-yl)-pentyl]-benzenesulfonyl fluoride]
Kd [1]: 0.81 nM
